Experimental data taken from BindingDB's records for doi:10.7270/Q2TX3CTT (Broad Institute, 2010).

Target: Glycogen synthase kinase-3 beta (Homo sapiens, UniProt P49841)
Assay: concentration-response blocking of human GSK3B – biochemical, luminescence, cell-free homogeneous, retest, dose response (AID 434954)

Glycogen synthase kinase-3 beta, sequence (P49841 whole entry): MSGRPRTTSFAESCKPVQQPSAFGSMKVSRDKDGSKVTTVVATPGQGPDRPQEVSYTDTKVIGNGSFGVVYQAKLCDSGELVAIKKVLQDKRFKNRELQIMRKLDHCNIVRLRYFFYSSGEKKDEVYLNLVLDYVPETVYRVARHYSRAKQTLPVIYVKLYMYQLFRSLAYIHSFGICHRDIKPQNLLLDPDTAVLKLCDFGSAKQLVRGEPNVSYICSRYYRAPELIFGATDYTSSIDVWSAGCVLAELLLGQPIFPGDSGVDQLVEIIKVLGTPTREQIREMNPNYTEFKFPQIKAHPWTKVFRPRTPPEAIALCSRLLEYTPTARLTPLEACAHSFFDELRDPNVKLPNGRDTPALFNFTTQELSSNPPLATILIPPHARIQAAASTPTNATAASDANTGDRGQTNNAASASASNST

CCN1C(=O)N[C@@H](c2ccccc2)[C@@H](C(=O)OC)[C@H]1C [CMLD004197]
EC50: > 300 µM

Cc1c(NC(=O)C(C)OC(=O)COc2ccccc2)c(=O)n(-c2ccccc2)n1C (centres undefined) [[1-[(1,5-dimethyl-3-oxidanylidene-2-phenyl-pyrazol-4-yl)amino]-1-oxidanylidene-propan-2-yl] 2-phenoxyethanoate]
EC50: > 300 µM

CC(C)N1C(=O)N(c2ccc(Cl)cc2)C(C)(O)CC1(C)C (centres undefined) [SMR000539554]
EC50: > 300 µM

COc1ccc(Nc2nc3ccc(OC)cc3s2)cc1 [MLS000684722]
EC50: > 300 µM

O=C(Cn1c2ccccc2c(=O)c2ccccc21)Nc1ccccc1F [N-(2-fluorophenyl)-2-(9-oxoacridin-10-yl)acetamide]
EC50: > 300 µM

N#CC(C#N)=Cc1cc2ccccc2nc1N1CCOCC1 [2-[(2-morpholin-4-ylquinolin-3-yl)methylidene]propanedinitrile]
EC50: > 300 µM

CC(C)(C)NC(=O)NC(=O)CSc1nncs1 [N-[(tert-butylamino)-oxomethyl]-2-(1,3,4-thiadiazol-2-ylthio)acetamide]
EC50: > 300 µM

CC(=O)COc1cc(C)cc2oc(=O)cc(-c3ccccc3)c12
EC50: > 300 µM

N#Cc1c(O)nc(-c2ccncc2)nc1-c1ccccc1 [4-oxidanylidene-6-phenyl-2-pyridin-4-yl-1H-pyrimidine-5-carbonitrile]
EC50: > 300 µM

CN(C)/C=C/C(=O)c1cnc(-c2cccc(Cl)c2)s1 [MLS000706958]
EC50: > 300 µM

O=C(O)c1cccnc1-c1ncccc1C(=O)O
EC50: > 300 µM

CC1(C)CC(=O)C=C(NCc2ccccc2)C1 [SMR000186728]
EC50: > 300 µM

Cc1cc(OCCCn2ccnc2)ccc1[N+](=O)[O-] [SMR000497363]
EC50: > 300 µM

CC(NCCC(Cc1ccccc1)c1ccco1)c1ccccc1 (centres undefined) [SMR000294034]
EC50: > 300 µM

Nc1nonc1-n1nnc(C(=O)NN=Cc2cccc(F)c2)c1CN1CCCC1 [MLS000948239]
EC50: > 300 µM

CCCN(CCC)Cc1c(C(=O)NN=Cc2c[nH]c3ccccc23)nnn1-c1nonc1N
EC50: > 300 µM

Oc1cc(SC(=Nc2ccccc2)Nc2ccccc2)c(O)n1-c1cccc2ccccc12 [MLS000558765]
EC50: > 300 µM

Nn1c(-c2cccs2)nc2sc3c(c2c1=O)CCCC3 [3-azanyl-2-thiophen-2-yl-5,6,7,8-tetrahydro-[1]benzothiolo[2,3-d]pyrimidin-4-one]
EC50: > 300 µM

CC(C)N1C(=O)C(=CNCc2cccnc2)C(=O)NC1=S [1-Isopropyl-5-[1-[(pyridin-3-ylmethyl)-amino]-meth-(E)-ylidene]-2-thioxo-dihydro-pyrimidine-4,6-dione]
EC50: > 300 µM

Fc1ccc(CSc2ccc3nnc(-c4cccs4)n3n2)cc1 [SMR000236997]
EC50: > 300 µM

Nc1nc(O)c(N=Nc2ccc(S(N)(=O)=O)cc2)c(=O)[nH]1 [SMR000543013]
EC50: > 300 µM

C=c1cc2[nH]c(=O)c(=Cc3ccc(OCC)c(OC)c3)c(=N)n2o1 [SMR000309341]
EC50: > 300 µM

COc1ccc(CCNc2nc(-c3ccc(O)cc3)cs2)cc1OC [SMR000502906]
EC50: > 300 µM

COc1ccc(OC)c(C(=O)c2coc3ccc(O)cc23)c1 [(2,5-dimethoxyphenyl)-(5-hydroxy-1-benzofuran-3-yl)methanone]
EC50: > 300 µM

CN(C)c1ccc(C=NNC(=O)c2nnn(-c3nonc3N)c2CN2CCCCCC2)cc1 [1-(4-amino-1,2,5-oxadiazol-3-yl)-5-(1-azepanylmethyl)-N-[[4-(dimethylamino)phenyl]methylideneamino]-4-triazolecarboxamide]
EC50: > 300 µM

COCCN(CC(=O)NCc1ccc(OC)cc1)C(=O)CCC(=O)Nc1nccs1 [MLS000032576]
EC50: > 300 µM

CCC(=O)Nc1nn(CC(C)C)c2nc3ccc(C)cc3cc12 [N-[6-methyl-1-(2-methylpropyl)pyrazolo[3,4-b]quinolin-3-yl]propanamide]
EC50: > 300 µM

OC[C@H]1O[C@@H](n2cnc3c(O)ncnc32)[C@H](O)[C@@H]1O [Atorel]
EC50: > 300 µM

Cc1cc2c(=O)oc(-c3ccc(F)cc3)nc2s1
EC50: > 300 µM

COc1ccc(-c2nn(-c3ccccc3)cc2CN=O)cc1 [3-(4-methoxyphenyl)-1-phenyl-4-pyrazolecarboxaldehyde oxime]
EC50: 0.432 µM

CCOC(=O)c1cnc2ccc(C(=O)OC)cc2c1Nc1ccc(C(=O)O)cc1 [SMR000273135]
EC50: > 300 µM

COc1cccc(C(=O)NNC(=O)c2ccccc2)c1
EC50: > 300 µM

CCOC(=O)c1cnc2ccc(C(=O)OC)cc2c1Nc1ccc2c(c1)OCCO2 [4-(2,3-Dihydro-benzo[1,4]dioxin-6-ylamino)-quinoline-3,6-dicarboxylic acid 3-ethyl ester 6-methyl ester]
EC50: 9.12 µM

O=C1Nc2ccccc2C1C=Nc1ccc2c(c1)OCO2 (centres undefined) [(3Z)-3-[(1,3-benzodioxol-5-ylamino)methylidene]-1H-indol-2-one]
EC50: 11.4 µM

OCCCNc1cc(-c2ccnc(Nc3cccc(Cl)c3)n2)ccn1
EC50: 0.212 µM

COc1ccc(COC(=O)c2cccc(S(=O)(=O)N3CCN(C(C)=O)CC3)c2)cc1 [(4-methoxyphenyl)methyl 3-(4-acetylpiperazin-1-yl)sulfonylbenzoate]
EC50: > 300 µM

Cc1ccc2cc3c(NC(=O)C4CCCO4)nn(CC(C)C)c3nc2c1 (centres undefined) [SMR000148634]
EC50: > 300 µM

Cc1cc(C)c(C#N)c(SCC(=O)c2ccc(Cl)cc2Cl)n1 [2-[2-(2,4-dichlorophenyl)-2-oxidanylidene-ethyl]sulfanyl-4,6-dimethyl-pyridine-3-carbonitrile]
EC50: > 300 µM

CCNC(=O)NC(=O)CSc1nc2ccccc2n1CCOC [SMR000154706]
EC50: > 300 µM

Nc1nonc1-n1nnc(C(=O)NN=Cc2ccoc2)c1CSc1ccccc1 [1-(4-azanyl-1,2,5-oxadiazol-3-yl)-N-(furan-3-ylmethylideneamino)-5-(phenylsulfanylmethyl)-1,2,3-triazole-4-carboxamide]
EC50: > 300 µM

Nc1nc(Nc2cccc(F)c2)nc(N2CCOCC2)c1[N+](=O)[O-] [2-N-(3-fluorophenyl)-6-morpholin-4-yl-5-nitropyrimidine-2,4-diamine]
EC50: > 300 µM

O=C(Nc1cccc2c1C(=O)NC2=O)c1ccc(-n2c(O)ccc2O)cc1 [N-[1,3-bis(oxidanylidene)isoindol-4-yl]-4-[2,5-bis(oxidanylidene)pyrrolidin-1-yl]benzamide]
EC50: 77.1 µM

CCN1CCN(CC2COc3ccccc3O2)CC1 (centres undefined) [MLS001173643]
EC50: > 300 µM

COCCOC(=O)C(C#N)c1nc2ccccc2nc1N1CCN(Cc2ccccc2)CC1 (centres undefined) [MLS000078656]
EC50: > 300 µM

C=CCOC(=O)C1C(C)=Nc2ncnn2C1c1cccs1 (centres undefined)
EC50: > 300 µM

Nc1nonc1-n1nnc(C(=O)NN=Cc2cccc(Cl)c2)c1CN1CCCC1
EC50: 5.25 µM

CC(C)(C)NC1=NN=C(c2ccc(Cl)cc2)CS1 [N-tert-butyl-5-(4-chlorophenyl)-6H-1,3,4-thiadiazin-2-amine]
EC50: > 300 µM

CN(C)S(=O)(=O)c1cc(NC(=O)CN2CCN(c3ccc(O)cc3)CC2)ccc1Cl [MLS000774170]
EC50: > 300 µM

Nc1nonc1-n1nnc(C(=O)NN=Cc2ccccc2F)c1CN1CCc2ccccc21 [MLS001075096]
EC50: 22.5 µM

COc1cccc(CSc2nnc(-c3ccc(F)cc3)o2)c1 [MLS000077100]
EC50: 22.5 µM

CCCOC1CCCN(Cc2cn(C)nc2-c2ccccc2F)C1 (centres undefined) [1-[[3-(2-fluorophenyl)-1-methylpyrazol-4-yl]methyl]-3-propoxypiperidine]
EC50: > 300 µM

CCOC(=O)c1c(C)[nH]c(C)c1S(=O)(=O)N(C)CC(=O)Nc1cccc(F)c1 [ethyl 4-[[2-(3-fluoroanilino)-2-oxoethyl]-methylsulfamoyl]-2,5-dimethyl-1H-pyrrole-3-carboxylate]
EC50: > 300 µM

c1ccc(-c2nc(-c3ccco3)n3ccccc23)cc1 [MLS000392030]
EC50: > 300 µM

COc1ccccc1C(=O)Oc1ccc(C(C)(C)C)cc1
EC50: > 300 µM

Nc1nc(NCC2CCCO2)nc(Nc2cccc(F)c2)c1[N+](=O)[O-] (centres undefined) [N4-(3-fluorophenyl)-5-nitro-N2-(2-oxolanylmethyl)pyrimidine-2,4,6-triamine]
EC50: 7.14 µM

CCCn1nc(NC(=O)c2cccs2)c2cc3cccc(C)c3nc21
EC50: > 300 µM

O=C(O)CNCC1COc2ccccc2O1 (centres undefined) [MLS000068078]
EC50: > 300 µM

CC1=C(C(=O)N2CCCCC2)C(c2cccs2)C2C(=O)CCCC2=N1 (centres undefined) [2-methyl-3-piperidin-1-ylcarbonyl-4-thiophen-2-yl-4,6,7,8-tetrahydro-1H-quinolin-5-one]
EC50: > 300 µM

O=C(N[N-][CH+]c1ccc(N2CCCC2)c([N+](=O)[O-])c1)c1cccnc1 [N-[(3-nitro-4-pyrrolidin-1-ylphenyl)methylideneamino]pyridine-3-carboxamide]
EC50: > 300 µM

O=C(O)c1ccccc1Nc1ccccc1C(=O)O [2-[(2-carboxyphenyl)amino]benzoic acid]
EC50: > 300 µM

CCOc1ccc(NC(=O)COC(=O)c2ccc3c(c2)C(=O)N(CCc2ccccc2)C3=O)cc1 [SMR000261375]
EC50: > 300 µM

CCC(CC)NC(=O)COC(=O)c1ccc2c(c1)C(=O)N(Cc1ccco1)C2=O [2-(2-furanylmethyl)-1,3-dioxo-5-isoindolecarboxylic acid [2-oxo-2-(pentan-3-ylamino)ethyl] ester]
EC50: > 300 µM

CCCc1cc(=O)oc2cc(C)c3c(C)coc3c12 [MLS000112563]
EC50: > 300 µM

COCC/N=C1\Sc2nc3c(C)cccc3cc2CN1Cc1ccco1 [SMR000122349]
EC50: > 300 µM

NCCCNc1nc(N)c([N+](=O)[O-])c(NC2CCCCC2)n1 [N2-(3-aminopropyl)-N4-cyclohexyl-5-nitropyrimidine-2,4,6-triamine]
EC50: 3.06 µM

Cc1cc2nc(-c3cccnc3O)[nH]c2cc1C
EC50: 8.16 µM

O=C(c1cccc(-c2ccccc2)c1)N1CC[C@@H](N2CCC(O)CC2)[C@H](O)C1
EC50: > 300 µM

O=C(NCCCN1CCCC1=O)c1c(O)n2ccsc2nc1=O [5-hydroxy-7-oxo-N-[3-(2-oxo-1-pyrrolidinyl)propyl]-6-thiazolo[3,2-a]pyrimidinecarboxamide]
EC50: > 300 µM

Nc1nc(S)c2ncn(C3OC(CO)C(O)C3O)c2n1 (centres undefined) [2-azanyl-9-[5-(hydroxymethyl)-3,4-bis(oxidanyl)oxolan-2-yl]-3H-purine-6-thione]
EC50: > 300 µM
